Reference: patent US7585833B2, “Malodor covering perfumery” (Givaudan Fragrances Corporation, priority 2005, dated 2009)

How the values were obtained:
[1] = Stability and malodor coverage evaluation of odorants in permanent hair color crème (10% ammonia); parameters: key to malodor coverage rating 1 Week RT / malodor coverage rating 1 Week Oven / malodor coverage rating 6 Weeks RT / malodor coverage rating 6 Weeks Oven / malodor coverage rating 2 Weeks RT / malodor coverage rating 2 Weeks Oven / malodor coverage rating 3 Weeks RT / malodor coverage rating 3 Weeks Oven / malodor coverage rating 4 Weeks RT / malodor coverage rating 4 Weeks Oven / malodor coverage rating 5 Weeks RT / malodor coverage rating 5 Weeks Oven: E: excellent; VG: very good; G: good coverage; key to odorant performance 1 Week RT / odorant performance 1 Week Oven / odorant performance 2 Weeks RT / odorant performance 2 Weeks Oven / odorant performance 3 Weeks RT / odorant performance 3 Weeks Oven / odorant performance 4 Weeks RT / odorant performance 4 Weeks Oven: E=excellent; VG=very good; G=good; F=fair; P=poor; settings: for odorant performance 1 Week Oven / odorant performance 1 Week RT / odorant performance 2 Weeks Oven / odorant performance 2 Weeks RT / odorant performance 3 Weeks Oven / odorant performance 3 Weeks RT / odorant performance 4 Weeks Oven / odorant performance 4 Weeks RT: odorant at 0.2% in dye less permanent hair color crème (10% ammonia hydroxide); for odorant performance 1 Week Oven / odorant performance 2 Weeks Oven / odorant performance 3 Weeks Oven / odorant performance 4 Weeks Oven: oven temperature; for odorant performance 1 Week RT / odorant performance 2 Weeks RT / odorant performance 3 Weeks RT / odorant performance 4 Weeks RT / malodor coverage rating 1 Week RT / malodor coverage rating 2 Weeks RT / malodor coverage rating 3 Weeks RT / malodor coverage rating 4 Weeks RT / malodor coverage rating 5 Weeks RT / malodor coverage rating 6 Weeks RT: room temperature; for malodor coverage rating 1 Week Oven / malodor coverage rating 1 Week RT / malodor coverage rating 2 Weeks Oven / malodor coverage rating 2 Weeks RT / malodor coverage rating 3 Weeks Oven / malodor coverage rating 3 Weeks RT / malodor coverage rating 4 Weeks Oven / malodor coverage rating 4 Weeks RT / malodor coverage rating 5 Weeks Oven / malodor coverage rating 5 Weeks RT / malodor coverage rating 6 Weeks Oven / malodor coverage rating 6 Weeks RT: 10% ammonia formulation; for malodor coverage rating 1 Week Oven / malodor coverage rating 2 Weeks Oven / malodor coverage rating 3 Weeks Oven / malodor coverage rating 4 Weeks Oven / malodor coverage rating 5 Weeks Oven / malodor coverage rating 6 Weeks Oven: oven at 37° C.; for stability observation in the formulation: odorant at 0.2% in permanent hair color crème (10% ammonia hydroxide), remark beside the raw material
Text: The marks E, VG, G stand for excellent, very good and good coverage and are part of a 5 scale rating system. […] Odorants were put up at 0.2% in the formulation, and odorants were subjected to 6 week stability testing at room temperature (R.T.) and […] oven temperature. […] G=good, F=fair; P=poor).

[2] = cited from earlier work; for ODT (ppb): odor detection threshold, Table 3

Structure (SMILES) | odorant performance 1 Week Oven [1] | odorant performance 1 Week RT [1] | odorant performance 2 Weeks Oven [1] | odorant performance 2 Weeks RT [1] | odorant performance 3 Weeks Oven [1] | odorant performance 3 Weeks RT [1] | odorant performance 4 Weeks Oven [1] | odorant performance 4 Weeks RT [1] | ODT (ppb) [2] | further results
C=CC(C)(O)CCC=C(C)C (stereo not shown) [LINALOOL SYNTHETIC, LINALOOL] | G | G | G | G | G | G | G | G |  | 
CCCC(C)C(=O)OCC (stereo not shown) [ethyl 2-methylpentanoate] |  |  |  |  |  |  |  |  | less than 50 ppb | 
CC(C)=CCCC(C)C=O (stereo not shown) [2,6-dimethyl-5-heptenal] |  |  |  |  |  |  |  |  | less than 50 ppb | 
O=C(OCc1ccccc1)c1ccccc1O [BENZYL SALICYLATE] | G | G | G | G | F | F | F | F |  | 
CC(C=O)Cc1ccc(C(C)(C)C)cc1 (stereo not drawn) [Lilial, p-t-Butyl-α-methylhydrocinnamic aldehyde] | G | G | G | G | G | G | G | G |  | 
CCOC(=O)CC(C)C [ethyl 3-methylbutanoate] |  |  |  |  |  |  |  |  | less than 50 ppb | 
CCC(C)COC(C)=O (stereo not drawn) [β-methyl butyl acetate] |  |  |  |  |  |  |  |  | less than 50 ppb | 
CCCCCOC(C)=O [pentyl acetate] |  |  |  |  |  |  |  |  | less than 50 ppb | 
CCCCCC=O [hexanal] |  |  |  |  |  |  |  |  | less than 50 ppb | 
CCOC(=O)CC1(C)OCCO1 [ethyl 2-methyl-1,3-dioxolane-2-acetate] |  |  |  |  |  |  |  |  | less than 50 ppb | 
CC12CCC(CC1)C(C)(C)O2 [1,3,3-trimethyl-2-oxabicyclo[2.2.2]octane] |  |  |  |  |  |  |  |  | less than 50 ppb | 
CC/C=C\CCOC(C)=O [cis-3-hexenyl acetate] | G | G | G | G | F | F | F | F |  | 
CC1COCc2cc3c(cc21)C(C)(C)C(C)C3(C)C (stereo not shown) [Galaxolide, 1,3,4,6,7,8-Hexahydro-4,6,6,7,8,8-hexamethylcyclopenta-γ-2-benzopyran] |  |  |  |  |  |  |  |  |  | malodor coverage rating 1 Week Oven [1]: E; malodor coverage rating 1 Week RT [1]: E; malodor coverage rating 2 Weeks Oven [1]: VG; malodor coverage rating 2 Weeks RT [1]: VG; malodor coverage rating 3 Weeks Oven [1]: G; malodor coverage rating 3 Weeks RT [1]: G; malodor coverage rating 4 Weeks Oven [1]: G; malodor coverage rating 4 Weeks RT [1]: G; malodor coverage rating 5 Weeks Oven [1]: G; malodor coverage rating 5 Weeks RT [1]: G; malodor coverage rating 6 Weeks Oven [1]: G; malodor coverage rating 6 Weeks RT [1]: G
CC(C)CC1CC(C)(O)CCO1 (stereo not shown) [FLOROL] | F | F | P | P | P | P | P | P |  | 
CCCCCC(=O)CC [3-octanone] |  |  |  |  |  |  |  |  | less than 50 ppb | 
COC(=O)C=C1CCCC1 [methyl cyclopentylidene acetate] |  |  |  |  |  |  |  |  | less than 50 ppb | 

Structure (SMILES) | odorant performance 1 Week Oven [1] | odorant performance 1 Week RT [1] | odorant performance 2 Weeks Oven [1] | odorant performance 2 Weeks RT [1] | odorant performance 3 Weeks Oven [1] | odorant performance 3 Weeks RT [1] | odorant performance 4 Weeks Oven [1] | odorant performance 4 Weeks RT [1] | ODT (ppb) [2] | further results
CCOC(=O)CC(C)=O [ETHYL ACETOACETATE] | F | F | F | F | F | F | F | F |  | stability observation in the formulation [1]: ETHYL ACETOACETATE (discolors in oven)
CCCCCCC(C=O)=Cc1ccccc1 [Hexyl cinnamic aldehyde] | G | G | G | G | G | G | G | G |  | stability observation in the formulation [1]: HEXYL CINNAMIC ALDEHYDE (cloudy)
CC1CC=CCCCCCCCCCC(=O)C1 (stereo not shown) [MUSCENONE @ 10% DPG] | F | F | F | F | F | F | F | F |  | 
CCCCCCOC [methyl hexyl ether] |  |  |  |  |  |  |  |  | less than 50 ppb | 
CC=CC(=O)C1=C(C)CCCC1(C)C [β-damascone, β-1-(2,6,6-trimethyl-1-cyclohexen-1-yl)-2-buten-1-one] | VG | E | VG | E | G | VG | G | VG |  | malodor coverage rating 1 Week Oven [1]: VG; malodor coverage rating 1 Week RT [1]: E; malodor coverage rating 2 Weeks Oven [1]: VG; malodor coverage rating 2 Weeks RT [1]: E; malodor coverage rating 3 Weeks Oven [1]: G; malodor coverage rating 3 Weeks RT [1]: VG; malodor coverage rating 4 Weeks Oven [1]: G; malodor coverage rating 4 Weeks RT [1]: VG; malodor coverage rating 5 Weeks Oven [1]: G; malodor coverage rating 5 Weeks RT [1]: VG; malodor coverage rating 6 Weeks Oven [1]: G; malodor coverage rating 6 Weeks RT [1]: G; odor detection threshold value in water ([2]; in water): 0.09 parts per billion
CCOC(=O)CC [ethyl propionate] |  |  |  |  |  |  |  |  | less than 50 ppb | 
CCCCCC(=O)OCC [ethyl hexanoate] |  |  |  |  |  |  |  |  | less than 50 ppb | 
CCc1ccc(CC(C)(C)C=O)cc1 [FLORALOZONE] | G | G | G | G | G | G | G | G |  | 
CC/C=C\CCC=O [cis-4-heptenal] |  |  |  |  |  |  |  |  | less than 50 ppb | 
C=CCOC(=O)COCCC(C)C [ALLYL AMYL GLYCOLATE] | G | G | F | G | F | G | F | G |  | 
CCCOC(=O)CCC [propyl butyrate] |  |  |  |  |  |  |  |  | less than 50 ppb | 
CCCCCCOC(C)=O [hexyl acetate] |  |  |  |  |  |  |  |  | less than 50 ppb | 
CCC/C=C/C=O [TRANS-2-HEXENAL @ 10% DPG, TRANS-2-HEXENAL] | F | G | F | G | F | G | F | F |  | 
CC/C=C\CCOC(=O)OC [cis-3-hexenyl methyl carbonate] |  |  |  |  |  |  |  |  | less than 50 ppb | 
CCOC(=O)C(C)CC (stereo not shown) [ethyl-2-methylbutyrate] |  |  |  |  |  |  |  |  | less than 50 ppb | 
CCCC(=O)OCC [ethyl butyrate] |  |  |  |  |  |  |  |  | less than 50 ppb | 
